# Measurements reported in patent US20150126465A1, “PROCESS FOR PRODUCING DERIVATIVES OF PYROSTEGIA VENUSTA, DERIVATIVES OF PYROSTEGIA VENUSTA, PHARMACEUTICAL COMPOSITIONS AND ITS USES” (priority 2011, published 2015).
# Where two headings read alike, the source gives them in different places.
# Experiments:
# Assay type in all cases: cell-based
# Candida krusei ATCC 6258 [1] = experiment: MIC/CFM by microdilution (CLSI M27-A2)
# [2] = test system: Candida guilhermondii USP; experiment: MIC/CFM by microdilution (CLSI M27-A2)
# [3] = test system: Trichophyton rubrum ATCC MYA-3108; experiment: MIC by microdilution, filamentous fungi (CLSI M38-A); conditions: Table 11, Trichophyton rubrum ATCC MYA-3108
# [4] = test system: Candida tropicalis USP B3; experiment: MIC by microdilution (CLSI M27-A2)
# [5] = test system: Candida tropicalis USP 1658; experiment: MIC by microdilution (CLSI M27-A2)
# [6] = test system: Candida parapsilosis USP 1933; experiment: MIC/CFM by microdilution (CLSI M27-A2)
# [7] = test system: Microsporum canis ATCC 32903; experiment: MIC by microdilution, filamentous fungi (CLSI M38-A); conditions: Table 13, Microsporum canis ATCC 32903, 7 days, 28° C.
# Description: (§1) Pure substances termed P1 and P2 previously dissolved in 20% DMSO, were diluted in RPMI medium, with final concentrations of 96 μg.mL-1. […] Cultures of filamentous fungi described below were inoculated in Agar-Batata Dextrose medium and inoculated for 7 days, at 28° C. Colonies of cultures inoculated for 7 days in an oven at 28° C. were shrouded with 0.85% saline solution, scraped and then transferred to conical tubes. After resting for 5 minutes, the supernatant was transferred to new conical tubes for subsequent quantification in spectrophotometer, at 530 nm, with the transmittance adjustment of 80-82% for A. niger and 70% for other microorganisms. After adjustment, there was a 1:50 dilution in RPM. The determination of Minimum Inhibitory Concentration was performed after 7 days, at 28° C. After the incubation period, aliquots of 96-well plates were transferred to Petri plates with Potato Dextrose Agar, to determine the Minimum Fungicidal Concentration. Plates were inoculated for more 7 days, at 28° C.
# [8] = test system: Phomopsis longicolla (soy isolate); experiment: as above; conditions: Table 13, Phomopsis longicolla- soy, 7 days, 28° C.
# Description: as §1
# [9] = test system: Trichophyton menthagrophyton ATCC 9533; experiment: as above; conditions: Table 13, Trichophyton menthagrophyton ATCC 9533, 7 days, 28° C.
# Description: as §1
# [10] = test system: Candida parapsilosis ATCC 22019; experiment: MIC/CFM by microdilution (CLSI M27-A2)
# Candida krusei USP 2223 = experiment: MIC by microdilution (CLSI M27-A2)
# [11] = test system: Candida albicans USP 1565; experiment: MIC by microdilution (CLSI M27-A2)
# [12] = test system: Candida tropicalis USP B3; experiment: Diffusion in Agar, halo of inhibition; set-up: unit not given here; conditions: 20 μL per hole, 48 hours at 37° C., controls 80 μg · mL^−1
# Description: (§2) Cultures of yeasts described below were inoculated in Agar-Sabouraud Dextrose medium and inoculated for 24 hours, at 35° C. Cultures of Candida sp. were prepared and standardized in […] saline solution at 0.85%. For inoculum standardization a spectrophotometer equipment was used with wavelength at 530 nm and absorbance adjustment between 0.130 and 0.150, having as white the saline solution free of inoculum or any other contaminant, corresponding to concentrations of 10^6 CFU/mL. In Petri plates (150×15 mm), were distributed RPMI medium with 0.8% Agar. To these plates, it was added 1 mL of the microorganism suspension in the concentration of 10^6 CFU/mL. After inundation, the suspension excess was removed with the aid of a pipette. With the plate surface already dry, hole of approximately 6.0 mm were made, adding to each hole 20 μL of the samples and control. The plates were then incubated for 48 hours at 37° C., when halo of inhibitions were measured.
# Candida krusei ATCC 6258 [13] = experiment: Diffusion in Agar, halo of inhibition; set-up: unit not given here; conditions: 20 μL per hole, 48 hours at 37° C., controls 80 μg · mL^−1
# Description: as §2
# [14] = test system: Candida parapsilosis ATCC 22019; experiment: Diffusion in Agar, halo of inhibition; set-up: unit not given here; conditions: 20 μL per hole, 48 hours at 37° C., controls 80 μg · mL^−1
# Description: as §2
# [15] = test system: Candida guilhermondii USP; experiment: Diffusion in Agar, halo of inhibition; set-up: unit not given here; conditions: Candida guilhemondii USP; 20 μL per hole, 48 hours at 37° C.; controls 80 μg · mL^−1
# Description: as §2
# [16] = test system: Candida albicans ATCC 10231; experiment: Diffusion in Agar, halo of inhibition; set-up: unit not given here; conditions: 20 μL per hole, 48 hours at 37° C., controls 80 μg · mL^−1
# Description: as §2
# [17] = test system: Candida albicans OF-M7-19; experiment: MIC/CFM by microdilution (CLSI M27-A2)
# Description: (§3) Pure substances termed P1 and P2 previously dissolved in 20% DMSO, were diluted in RPMI medium, with final concentrations of 96 μg.mL-1. […] The same was also tested individually, diluted in RPMI medium, with initial concentration of 1 μL.mL-1. […] Cultures of Candida sp. were prepared and standardized in […] saline solution at 0.85%. For inoculums standardization, a spectrophotometer equipment was used, with wavelength at 530 nm and absorbance adjustment between 0.130 and 0.150, having as white the saline solution free of inoculum or any other contaminant, corresponding to concentrations of 10^6 CFU/mL. In this condition the inoculum “mother” was diluted 50 times and from this inoculum “child” the dilution was performed 20 times to obtain a standard inoculum in 10^3 cells per well. […] To aid in the growth view, were added to the wells dye 50 μL 2,3,5-triphenyltetrazolium chloride (TTC) at 5 mg.mL “1, being performed the readings after 4 hours of incubation. Prior to the addition of dye, aliquots of 96-well plate were transferred to Petri with Agar-Sabouraud Dextrose to determine the Minimum Fungicidal Concentration. Plates were incubated for 24 hours at 35° C.
# [18] = test system: Candida albicans OF-M3-20; experiment: MIC/CFM by microdilution (CLSI M27-A2)
# Description: as §3
# Candida albicans USP 1 = experiment: MIC/CFM by microdilution (CLSI M27-A2)
# Description: as §3
# C. Albicans USP 2 = experiment: MIC/CFM against Candida sp. strains; conditions: Table 14, C. Albicans USP 2
# [19] = test system: Candida albicans ATCC 10231; experiment: MIC/CFM by microdilution (CLSI M27-A2); conditions: Candida albicans, ATCC10231, read-out: MIC
# Candida glabrata ATCC = experiment: MIC/CFM against Candida sp. strains; conditions: Nakaseomyces glabratus; Table 14, Candida glabrata ATCC
molecule,measurement,setting,value
Nistatina,MIC,"Candida krusei ATCC 6258 [1]; Table 11, C. krusei ATCC 6258",6.25 µg/mL
same,MIC,"Candida krusei ATCC 6258 [1]; Table 12, C. krusei ATCC 6258, 48 h, 35° C.",6.25 µg/mL
same,MIC,"[2]; Table 11, C. guilhermondii USP",3.125 µg/mL
same,MIC,"[2]; Table 12, C. guilhermondii USP, 48 h, 35° C.",6.25 µg/mL
same,MIC,[3],3.125 µg/mL
same,MIC,"[4]; Table 11, C. Tropicalis USP B3",6.25 µg/mL
same,MIC,"[5]; Table 11, C. Tropicalis USP 1658",6.25 µg/mL
same,MIC,"[5]; Table 12, C. tropicalis USP 1658, 48 h, 35° C.",6.125 µg/mL
same,MIC,"[6]; Table 11, C. parapsilosis USP 1933",6.25 µg/mL
same,MIC,"[6]; Table 12, C. parapsilosis USP 1933, 48 h, 35° C.",12.5 µg/mL
same,MIC,[7],12.5 µg/mL
same,MIC,[8],3.125 µg/mL
same,MIC,[9],12.5 µg/mL
same,MIC,"[10]; Table 12, C. parapsilosis ATCC 22019, 48 h, 35° C.",6.25 µg/mL
same,MIC,"Candida krusei USP 2223; Table 11, C. krusei ATCC 2223",6.25 µg/mL
same,MIC,"Candida krusei USP 2223; Table 12, C. krusei USP 2223, 48 h, 35° C.",6.25 µg/mL
same,MIC,"[11]; Table 11, C. Albicans USP 1565",6.25 µg/mL
same,MIC,"[11]; Table 12, C. albicans USP 1565, 48 h, 35° C.",6.25 µg/mL
same,Halo of inhibition,[12],0
same,Halo of inhibition,Candida krusei ATCC 6258 [13],1.2
same,Halo of inhibition,[14],1.6
same,Halo of inhibition,[15],1.1
same,Halo of inhibition,[16],1.5
same,MIC,"[17]; Table 12, C. albicans OF M7-19, 48 h, 35° C.",12.5 µg/mL
same,MIC,"[18]; Table 12, C. albicans OF M3-20, 48 h, 35° C.",12.5 µg/mL
same,MIC,"Candida albicans USP 1; Table 12, C. albicans USP 1, 48 h, 35° C.",6.25 µg/mL
"C[C@@H]1O[C@@H](O[C@@H]2[C@@H](O)[C@H](OCCc3ccc(O)c(O)c3)O[C@H](CO)[C@H]2OC(=O)/C=C/c2ccc(O)c(O)c2)[C@H](O)[C@H](O)[C@H]1O [Fraction P2, verbascoside]",MIC,"Candida krusei ATCC 6258 [1]; Pichia kudriavzevii, ATCC6258, Table 12, C. krusei ATCC 6258, 48 h, 35° C., read-out: MIC",0.375 µg/mL
same,MIC,"Candida krusei ATCC 6258 [1]; Pichia kudriavzevii, ATCC6258, Table 14, C. krusei ATCC, read-out: MIC",1.5 µg/mL
same,MIC,"[2]; Candida, Table 12, C. guilhermondii USP, 48 h, 35° C., read-out: MIC",0.375 µg/mL
same,MIC,"[2]; Table 14, Candida guilhermondi USPATCC, read-out: MIC",0.75 µg/mL
same,MIC,"[4]; Candida tropicalis, USPB3, Table 14, C. Tropicalis UPS B3, read-out: MIC",1.5 µg/mL
same,MIC,"[5]; Candida tropicalis, USP1658, Table 12, C. tropicalis USP 1658, 48 h, 35° C., read-out: MIC",1.5 µg/mL
same,MIC,"[6]; Lodderomyces parapsilosis, USP1933, Table 12, C. parapsilosis USP 1933, 48 h, 35° C., read-out: MIC",0.75 µg/mL
same,MIC,"[6]; Lodderomyces parapsilosis, USP1933, Table 14, C. parapsilosis USP 1933 ATCC, read-out: MIC",1.5 µg/mL
same,MIC,C. Albicans USP 2,1.5 µg/mL
same,MIC,"[7]; ATCC32903, 168 h, read-out: MIC",12 µg/mL
same,MIC,"[8]; Diaporthe longicolla, 168 h, read-out: MIC",16 µg/mL
same,MIC,"[9]; ATCC9533, 168 h, read-out: MIC",48 µg/mL
same,MIC,"[10]; Lodderomyces parapsilosis, ATCC22019, Table 12, C. parapsilosis ATCC 22019, 48 h, 35° C., read-out: MIC",0.375 µg/mL
same,MIC,"[10]; Lodderomyces parapsilosis, ATCC22019, Table 14, C. parapsilosis ATCC 22019, read-out: MIC",1.5 µg/mL
same,MIC,"Candida krusei USP 2223; Pichia kudriavzevii, USP2223, Table 12, C. krusei USP 2223, 48 h, 35° C., read-out: MIC",0.75 µg/mL
same,MIC,"Candida krusei USP 2223; Pichia kudriavzevii, USP2223, Table 14, C. krusei USP 2223, read-out: MIC",1.5 µg/mL
same,MIC,"[11]; Candida albicans, USP1565, Table 12, C. albicans USP 1565, 48 h, 35° C., read-out: MIC",0.375 µg/mL
same,MIC,"[19]; Table 12, C. albicans ATCC 10231, 48 h, 35° C.",3 µg/mL
same,MIC,"[19]; Table 14, C. Albicans ATCC 10231",1.5 µg/mL
same,MIC,"[17]; Candida albicans, OFM719, Table 12, C. albicans OF M7-19, 48 h, 35° C., read-out: MIC",0.375 µg/mL
same,MIC,"[17]; Candida albicans, OFM719, Table 14, C. Albicans OF M7-19, read-out: MIC",0.75 µg/mL
same,MIC,"[18]; Candida albicans, OFM320, Table 12, C. albicans OF M3-20, 48 h, 35° C., read-out: MIC",0.375 µg/mL
same,MIC,"[18]; Candida albicans, OFM320, Table 14, C. Albicans OF M3-20, read-out: MIC",1.5 µg/mL
same,MIC,"Candida albicans USP 1; Candida albicans, USP1, Table 12, C. albicans USP 1, 48 h, 35° C., read-out: MIC",0.375 µg/mL
same,MIC,"Candida albicans USP 1; Candida albicans, USP1, Table 14, C. Albicans USP 1, read-out: MIC",1.5 µg/mL
same,MIC,Candida glabrata ATCC,0.75 µg/mL
